A short description of data set [1]: Hygroscopicity by dynamic vapor sorption (DVS). Type of data set: physicochemical. As to the method: The hygroscopicity of the crystalline forms of the salts of 3-[(dimethylamino)methyl]-N-{2-[4-(hydroxycarbamoyl)phenoxy]ethyl}-1-benzofuran-2-carboxamide according to the invention was evaluated by dynamic vapor sorption (DVS) using a DVS Intrinsic apparatus. A sample of 5 to 10 mg of the substance, weighed accurately, was disposed in a DVS sample pan operating at 25° C. under controlled humidity. The mass variation was recorded on the basis of a balancing bearing at 50% relative humidity, followed by three subsequent linear phases of increasing (from 50 to 90%), of decreasing (from 90 to 0%) and of increasing (from 0 to 50%) the relative humidity at a speed of 10% per hour. The relative humidity was maintained constant when it reached either 0, or 50, or 90% relative humidity, until the mass variation was less than 0.002% per minute, with a time limit of 15 hours.
The hygroscopicity of the hemipentahydrate crystalline form of the hydrogen sulfate of 3-[(dimethylamino)methyl]-N-{2-[4-(hydroxycarbamoyl)phenoxy]ethyl}-1-benzofuran-2-carboxamide according to the invention was evaluated by dynamic vapor sorption (DVS) using a DVS Intrinsic apparatus. A sample of 5 to 10 mg of the substance, weighed accurately, was disposed in a DVS sample pan operating at 25° C. under controlled humidity. The mass variation was recorded on the basis of a balancing bearing at 50% relative humidity, followed by three subsequent linear phases of increasing (from 50 to 90%), of decreasing (from 90 to 0%) and of increasing (from 0 to 50%) the relative humidity at a speed of 10% per hour. The relative humidity was maintained constant when it reached either 0, or 50, or 90 % relative humidity, until the mass variation is less than 0.002% per minute, with a time limit of 15 hours.

The test system of data set [2] is tumor cells. The following applies: tumor cells cultured in vitro; Buggy et al. 2006; cited from earlier work.
For data set [3], the system named is xenograft models. The following applies: Buggy et al. 2006; cited from earlier work.
The conditions of data set [4]: salt of WO 2004/092115; use on industrial scale difficult; cited from earlier work.

With `CN(C)Cc1c(C(=O)NCCOc2ccc(C(=O)NO)cc2)oc2ccccc12.O=C(O)C(=O)O` [Example 3, Oxalate of 3-[(dimethylamino)methyl]-N-{2-[4-(hydroxycarbamoyl)phenoxy]ethyl}-1-benzofuran-2-carboxamide], the “mass variation detected by DVS analysis” value in data set [1] (exposure to between 0 and 90% relative humidity at 25° C.) is recorded as “less than 0.2%”.
As for `CN(C)Cc1c(C(=O)NCCOc2ccc(C(=O)NO)cc2)oc2ccccc12` [abexinostat, 3-[(Dimethylamino)methyl]-N-{2-[4-(hydroxycarbamoyl)phenoxy]ethyl}-1-benzofuran-2-carboxamide], in data set [2], the effect on apoptosis entry is “induce apoptosis” and the “effect on cell growth” value is reported as “inhibit cell growth”. In addition, the “effect on tumor growth” value in data set [3] was “inhibit tumor growth”.
Turning to `CN(C)Cc1c(C(=O)NCCOc2ccc(C(=O)NO)cc2)oc2ccccc12.Cl` [hydrochloride, hydrochloride of 3-[(dimethylamino)methyl]-N-{2-[4-(hydroxycarbamoyl)phenoxy]ethyl}-1-benzofuran-2-carboxamide], the hygroscopic properties entry in data set [4] is “hygroscopic”.
“Hydrogen Sulfate of 3-[(dimethylamino)methyl]-N-{2-[4-(hydroxycarbamoyl)phenoxy]ethyl}-1-benzofuran-2-carboxamide [Example 5]”: the “relative humidity beyond which converted into hemiheptahydrate hydrogen sulfate” value in data set [1] (DVS, 25° C., increasing humidity) was > 70 % relative humidity.
As to “Hydrogen Sulfate of 3-[(dimethylamino)methyl]-N-{2-[4-(hydroxycarbamoyl)phenoxy]ethyl}-1-benzofuran-2-carboxamide [Example 6]”, in data set [1] (DVS, 25° C., decreasing humidity to 0%), the “relative humidity below which dehydrated completely” value is on record as “Below 20 % relative humidity”.
